Test results as given in patent US11578056B2, “Solid forms comprising (S)-2-(2,6-dioxopiperidin-3-yl)-4-((2-fluoro-4-((3-morpholinoazetidin-1-yl)methyl)benzyl)amino)isoindoline-1,3-dione and salts thereof, and compositions comprising and methods of using the same” (Celgene Corporation, priority 2019, dated 2023).

Columns and labels:
Type in all cases: physicochemical
[1] = Dynamic vapor sorption (DVS) hygroscopicity
Procedure: Dynamic vapor sorption (DVS) was measured using DVS advantage (Surface Measurement Systems Ltd). The samples were tested under isotherm (25° C.) at a targeted RH of 0 to 95% full cycle in step mode. For an isotherm test, the chamber temperature is maintained by a water bath at constant 25.0±1.0° C. The relative humidity in the sample chamber is generated by combining different flows of wet and dry nitrogen with variable flow rates. The analysis was performed in 10% RH increments. Sampling rate is 1 sec save data rate is 20 sec. The dm/dt (%) value was set at 0.001 with a dm/dt window of 5 min., a minimum stability duration time of 10 min, and a maximum stage time of 180 min. The sample's equilibrium weight corresponding to each RH was recorded. A sorption isotherm is obtained by plotting equilibrium moisture content versus RH.

[2] = Solid state stability of free base and salt forms under stress storage conditions;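 for Physical stability: Physical stability judged by XRPD check of crystalline form at end of study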
Procedure: The solid samples were analyzed for both chemical and chiral stability.

[3] = Estimated solubility of free base and salt forms in solvents (aliquot addition, visual)
Procedure: The experiments were carried out by adding the test solvent in aliquots to weighed portions of solid. Whether dissolution had occurred was judged by visual inspection after addition of each solvent aliquot. Solubility numbers were calculated by dividing the total amount of solvent used to dissolve the sample by the weight of the sample. […] The solubility number is expressed as “greater than or equal to” if dissolution occurred on addition of the first solvent aliquot.

O=C1CC[C@H](N2C(=O)c3cccc(NCc4ccc(CN5CC(N6CCOCC6)C5)cc4F)c3C2=O)C(=O)N1 [Compound 1 amorphous free base]
hygroscopicity (DVS) ([1]; below 75% RH): relatively high hygroscopicity
sorption/desorption reversibility (DVS) ([1]; during two full cycles): almost reversible
moisture picked up (DVS) ([1]; from dry up to 90% RH): ~6.0 % wt

Tosylate
Chemical (%) ([2]; 40° C.): 99.18%
Chiral (%) ([2]; 40° C.): 98.52%
Physical stability ([2]; 40° C.): Stable
Chemical (%) ([2]; 40° C./80% RH): 98.84%
Chiral (%) ([2]; 40° C./80% RH): 98.48%
Physical stability ([2]; 40° C./80% RH): Stable
Chemical (%) ([2]; 60° C.): 99.01%
Chiral (%) ([2]; 60° C.): 98.46%
Physical stability ([2]; 60° C.): Stable
Chemical (%) ([2]; 60° C./75% RH): 96.76%
Chiral (%) ([2]; 60° C./75% RH): 98.10%
Physical stability ([2]; 60° C./75% RH): Stable
Chemical (%) ([2]; 70° C.): 98.58%
Chiral (%) ([2]; 70° C.): 98.43%
Physical stability ([2]; 70° C.): Stable
Chemical (%) ([2]; 70° C./80% RH): 95.73%
Chiral (%) ([2]; 70° C./80% RH): 97.64%
Physical stability ([2]; 70° C./80% RH): Stable
Chemical (%) ([2]; Ambient): 99.19%
Chiral (%) ([2]; Ambient): 98.49%
Solubility ([3]; 2-methyl tetrahydrofuran): <1000 µg/mL
Solubility ([3]; 2-propanol): <1000 µg/mL
Solubility ([3]; 95:5 2-PrOH/water): <1000 µg/mL
Solubility ([3]; 95:5 ACN/water): 17000 µg/mL
Solubility ([3]; 95:5 THF/water): 16000 µg/mL
Solubility ([3]; 95:5 acetone/water): 3000 µg/mL
Solubility ([3]; N-methyl pyrrolidone): 17000 µg/mL
Solubility ([3]; acetone): <1000 µg/mL
Solubility ([3]; acetonitrile): 1000 µg/mL
Solubility ([3]; anisole): <1000 µg/mL
Solubility ([3]; dichloromethane): 1000 µg/mL
Solubility ([3]; dimethylacetamide): 30000 µg/mL
Solubility ([3]; dimethylsulfoxide): 34000 µg/mL
Solubility ([3]; ethanol): <1000 µg/mL
Solubility ([3]; ethyl acetate): <1000 µg/mL
Solubility ([3]; ethyl formate): <1000 µg/mL
Solubility ([3]; isopropyl acetate): <1000 µg/mL
Solubility ([3]; methanol): 3000 µg/mL
Solubility ([3]; methyl ethyl ketone): <1000 µg/mL
Solubility ([3]; methyl tert-butyl ether): <1000 µg/mL
Solubility ([3]; nitromethane): 4000 µg/mL
Solubility ([3]; tetrahydrofuran): <1000 µg/mL
Solubility ([3]; toluene): <1000 µg/mL
Solubility ([3]; water): 2000 µg/mL

Cl.O=C1CC[C@H](N2C(=O)c3cccc(NCc4ccc(CN5CC(N6CCOCC6)C5)cc4F)c3C2=O)C(=O)N1 [HC1 salt]
Chemical (%) ([2]; 40° C.): 99.13%
Chiral (%) ([2]; 40° C.): 99.29%
Physical stability ([2]; 40° C.): Stable
Chemical (%) ([2]; 40° C./80% RH): 99.56%
Chiral (%) ([2]; 40° C./80% RH): 99.22%
Physical stability ([2]; 40° C./80% RH): Stable
Chemical (%) ([2]; 60° C.): 99.35%
Chiral (%) ([2]; 60° C.): 99.02%
Physical stability ([2]; 60° C.): Stable
Chemical (%) ([2]; 60° C./75% RH): 99.56%
Chiral (%) ([2]; 60° C./75% RH): 98.70%
Physical stability ([2]; 60° C./75% RH): Stable
Chemical (%) ([2]; 70° C.): 99.32%
Chiral (%) ([2]; 70° C.): 99.13%
Physical stability ([2]; 70° C.): Stable
Chemical (%) ([2]; 70° C./80% RH): 99.43%
Chiral (%) ([2]; 70° C./80% RH): 98.91%
Physical stability ([2]; 70° C./80% RH): Stable
Chemical (%) ([2]; Ambient): 99.08%
Chiral (%) ([2]; Ambient): 99.26%

O=C1CC[C@H](N2C(=O)c3cccc(NCc4ccc(CN5CC(N6CCOCC6)C5)cc4F)c3C2=O)C(=O)N1 [Free base]
Chemical (%) ([2]; 40° C.): 98.44%
Chiral (%) ([2]; 40° C.): 99.03%
Chemical (%) ([2]; 40° C./80% RH): 98.56%
Chiral (%) ([2]; 40° C./80% RH): 99.02%
Chemical (%) ([2]; 60° C.): 95.80%
Chiral (%) ([2]; 60° C.): 98.69%
Physical stability ([2]; 60° C.): Unstable
Chemical (%) ([2]; 60° C./75% RH): 98.10%
Chiral (%) ([2]; 60° C./75% RH): 83.04%
Physical stability ([2]; 60° C./75% RH): Unstable
Chemical (%) ([2]; 70° C.): 85.68%
Chiral (%) ([2]; 70° C.): 95.57%
Physical stability ([2]; 70° C.): Unstable
Chemical (%) ([2]; 70° C./80% RH): 93.29%
Chiral (%) ([2]; 70° C./80% RH): 52.01%
Physical stability ([2]; 70° C./80% RH): Unstable
Chemical (%) ([2]; Ambient): 98.95%
Chiral (%) ([2]; Ambient): 99.16%

O=C1CC[C@H](N2C(=O)c3cccc(NCc4ccc(CN5CC(N6CCOCC6)C5)cc4F)c3C2=O)C(=O)N1 [Free Base]
Solubility ([3]; 2-methyl tetrahydrofuran): 30000 µg/mL
Solubility ([3]; 2-propanol): <1000 µg/mL
Solubility ([3]; 95:5 2-PrOH/water): 2000 µg/mL
Solubility ([3]; 95:5 ACN/water): 27000 µg/mL
Solubility ([3]; 95:5 THF/water): 20000 µg/mL
Solubility ([3]; 95:5 acetone/water): 31000 µg/mL
Solubility ([3]; N-methyl pyrrolidone): 31000 µg/mL
Solubility ([3]; acetone): 52000 µg/mL
Solubility ([3]; acetonitrile): 33000 µg/mL
Solubility ([3]; anisole): 26000 µg/mL
Solubility ([3]; dichloromethane): 59000 µg/mL
Solubility ([3]; dimethylacetamide): 34000 µg/mL
Solubility ([3]; ethanol): 1000 µg/mL
Solubility ([3]; ethyl acetate): 33000 µg/mL
Solubility ([3]; ethyl formate): 30000 µg/mL
Solubility ([3]; isopropyl acetate): 6000 µg/mL
Solubility ([3]; methanol): 2000 µg/mL
Solubility ([3]; methyl ethyl ketone): 29000 µg/mL
Solubility ([3]; methyl tert-butyl ether): <1000 µg/mL
Solubility ([3]; nitromethane): 34000 µg/mL
Solubility ([3]; tetrahydrofuran): 28000 µg/mL
Solubility ([3]; toluene): 3000 µg/mL
Solubility ([3]; water): <1000 µg/mL

Cl.Cl.O=C1CC[C@H](N2C(=O)c3cccc(NCc4ccc(CN5CC(N6CCOCC6)C5)cc4F)c3C2=O)C(=O)N1
hygroscopicity (DVS) ([1]; below 90% RH): highly hygroscopic
moisture gain (DVS) ([1]; from 80% RH to 90% RH): ~6.7%
water content released during desorption (DVS) ([1]; from 90 to 80% RH): ~7.0%
moisture picked up (DVS) ([1]; from dry up to 80% RH): ~8.0 % wt

Cl.O=C1CC[C@H](N2C(=O)c3cccc(NCc4ccc(CN5CC(N6CCOCC6)C5)cc4F)c3C2=O)C(=O)N1 [HCl Salt]
Solubility ([3]; 2-methyl tetrahydrofuran): <1000 µg/mL
Solubility ([3]; 2-propanol): <1000 µg/mL
Solubility ([3]; 95:5 2-PrOH/water): <1000 µg/mL
Solubility ([3]; 95:5 ACN/water): 3000 µg/mL
Solubility ([3]; 95:5 THF/water): 1000 µg/mL
Solubility ([3]; 95:5 acetone/water): <1000 µg/mL
Solubility ([3]; N-methyl pyrrolidone): 1000 µg/mL
Solubility ([3]; acetone): <1000 µg/mL
Solubility ([3]; acetonitrile): <1000 µg/mL
Solubility ([3]; anisole): <1000 µg/mL
Solubility ([3]; dichloromethane): <1000 µg/mL
Solubility ([3]; dimethylacetamide): 1000 µg/mL
Solubility ([3]; dimethylsulfoxide): 38000 µg/mL
Solubility ([3]; ethanol): <1000 µg/mL
Solubility ([3]; ethyl acetate): <1000 µg/mL
Solubility ([3]; ethyl formate): <1000 µg/mL
Solubility ([3]; isopropyl acetate): <1000 µg/mL
Solubility ([3]; methanol): 2000 µg/mL
Solubility ([3]; methyl ethyl ketone): <1000 µg/mL
Solubility ([3]; methyl tert-butyl ether): <1000 µg/mL
Solubility ([3]; nitromethane): <1000 µg/mL
Solubility ([3]; tetrahydrofuran): <1000 µg/mL
Solubility ([3]; toluene): <1000 µg/mL
Solubility ([3]; water): 2000 µg/mL

Fumarate
Chemical (%) ([2]; 40° C.): 98.64%
Chiral (%) ([2]; 40° C.): 95.39%
Physical stability ([2]; 40° C.): Stable
Chemical (%) ([2]; 40° C./80% RH): 98.69%
Chiral (%) ([2]; 40° C./80% RH): 94.55%
Physical stability ([2]; 40° C./80% RH): Stable
Chemical (%) ([2]; 60° C.): 97.43%
Chiral (%) ([2]; 60° C.): 95.54%
Physical stability ([2]; 60° C.): Stable
Chemical (%) ([2]; 60° C./75% RH): 98.19%
Chiral (%) ([2]; 60° C./75% RH): 93.14%
Physical stability ([2]; 60° C./75% RH): Stable
Chemical (%) ([2]; 70° C.): 95.94%
Chiral (%) ([2]; 70° C.): 95.11%
Physical stability ([2]; 70° C.): Stable
Chemical (%) ([2]; 70° C./80% RH): 93.79%
Chiral (%) ([2]; 70° C./80% RH): 91.52%
Physical stability ([2]; 70° C./80% RH): Stable
Chemical (%) ([2]; Ambient): 98.77%
Chiral (%) ([2]; Ambient): 95.82%
Solubility ([3]; 2-methyl tetrahydrofuran): <1000 µg/mL
Solubility ([3]; 2-propanol): <1000 µg/mL
Solubility ([3]; 95:5 2-PrOH/water): 1000 µg/mL
Solubility ([3]; 95:5 ACN/water): 2000 µg/mL
Solubility ([3]; 95:5 THF/water): 8000 µg/mL
Solubility ([3]; 95:5 acetone/water): 2000 µg/mL
Solubility ([3]; N-methyl pyrrolidone): 17000 µg/mL
Solubility ([3]; acetone): <1000 µg/mL
Solubility ([3]; acetonitrile): <1000 µg/mL
Solubility ([3]; anisole): <1000 µg/mL
Solubility ([3]; dichloromethane): <1000 µg/mL
Solubility ([3]; dimethylacetamide): 23000 µg/mL
Solubility ([3]; dimethylsulfoxide): 36000 µg/mL
Solubility ([3]; ethanol): <1000 µg/mL
Solubility ([3]; ethyl acetate): <1000 µg/mL
Solubility ([3]; ethyl formate): <1000 µg/mL
Solubility ([3]; isopropyl acetate): <1000 µg/mL
Solubility ([3]; methanol): 3000 µg/mL
Solubility ([3]; methyl ethyl ketone): <1000 µg/mL
Solubility ([3]; methyl tert-butyl ether): <1000 µg/mL
Solubility ([3]; nitromethane): <1000 µg/mL
Solubility ([3]; tetrahydrofuran): 1000 µg/mL
Solubility ([3]; toluene): <1000 µg/mL
Solubility ([3]; water): 2000 µg/mL
